Measurements taken from article PMC6173770, “Direct electrical quantification of glucose and asparagine from bodily fluids using nanopores” (Nature Communications, 2018).

Biological target: T1, SBD1 (Lactococcus lactis, UniProt Q9CES5)
T1 construct: gene glnP; His tag cleaved off by TEV; expressed in E. coli MC1061; SEC purified
T1 sequence (Q9CES5 27-251 limits assumed): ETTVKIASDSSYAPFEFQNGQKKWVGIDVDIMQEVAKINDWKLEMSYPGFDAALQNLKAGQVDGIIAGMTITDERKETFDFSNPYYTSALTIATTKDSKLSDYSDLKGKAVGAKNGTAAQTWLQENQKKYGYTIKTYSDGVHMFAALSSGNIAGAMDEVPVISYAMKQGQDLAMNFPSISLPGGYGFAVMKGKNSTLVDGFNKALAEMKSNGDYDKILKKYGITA
Assay: single-molecule nanopore current (SBD1 trapped in ClyA-AS), closed fraction vs ligand, Hill fit n = […]
Assay type: binding
Settings: 150 mM NaCl, 15 mM Tris-HCl, pH 7.5, 25 °C, -90 mV, asparagine in trans; read-out: Kd^app

## NC(=O)C[C@H](N)C(=O)O [asparagine]
  Kd: 500 ± 40 nM
